These results are taken from paper PMC10824666 (Nature Cancer, 2023).

Holding throughout (experiment): biochemical
Parameters in all cases: Eurofins DiscoverX kinase panel, competitive binding assay at 1 uM, percent of DMSO control
Common to all, as to details: competitive binding, percent of DMSO control

The target in one assay is c-KIT (Homo sapiens, UniProt P10721). The gist of the method:
(§1)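 Single-point profiling at 1 µM compound in a competition-binding format against 96 kinases, read out as POC relative to control; n = 1.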

Another assay has as its target NEK6 (Homo sapiens, UniProt Q9HC98). The gist of the method: as §1
A further assay has as its target T1, PLK4 (Homo sapiens, UniProt O00444).
T1 sequence (O00444 1-970): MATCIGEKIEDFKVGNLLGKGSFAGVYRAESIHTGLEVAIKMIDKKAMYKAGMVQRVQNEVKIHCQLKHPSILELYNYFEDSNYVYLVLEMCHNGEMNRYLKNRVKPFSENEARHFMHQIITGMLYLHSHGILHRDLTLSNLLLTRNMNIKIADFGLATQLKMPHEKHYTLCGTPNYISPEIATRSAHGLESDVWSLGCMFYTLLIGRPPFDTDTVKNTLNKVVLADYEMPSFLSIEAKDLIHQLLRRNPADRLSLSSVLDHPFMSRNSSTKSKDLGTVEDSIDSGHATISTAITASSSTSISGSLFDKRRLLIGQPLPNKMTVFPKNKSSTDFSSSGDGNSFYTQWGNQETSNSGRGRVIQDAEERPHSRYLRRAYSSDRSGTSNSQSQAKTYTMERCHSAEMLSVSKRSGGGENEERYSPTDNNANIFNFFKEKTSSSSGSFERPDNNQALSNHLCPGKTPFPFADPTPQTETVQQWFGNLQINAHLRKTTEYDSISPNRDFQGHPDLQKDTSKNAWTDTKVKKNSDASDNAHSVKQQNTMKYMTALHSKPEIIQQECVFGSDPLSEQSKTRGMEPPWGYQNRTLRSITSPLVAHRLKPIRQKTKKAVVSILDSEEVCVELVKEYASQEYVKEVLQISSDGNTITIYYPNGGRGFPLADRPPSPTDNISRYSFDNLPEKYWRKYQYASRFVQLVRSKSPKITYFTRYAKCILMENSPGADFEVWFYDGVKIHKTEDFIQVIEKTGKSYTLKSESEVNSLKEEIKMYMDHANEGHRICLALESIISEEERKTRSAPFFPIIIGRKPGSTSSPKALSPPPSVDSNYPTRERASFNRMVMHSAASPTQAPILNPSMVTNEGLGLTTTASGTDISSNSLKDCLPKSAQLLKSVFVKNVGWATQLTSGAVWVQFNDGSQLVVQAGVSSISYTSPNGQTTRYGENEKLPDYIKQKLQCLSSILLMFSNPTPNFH
In short, it runs like this: as §1

[1] abbreviates: read-out: Kinome Profiling performed by Eurofins DiscoverX / AM-0277, 1.0 µM / POC.
Where [2] appears, read: read-out: Kinome Profiling performed by Eurofins DiscoverX / AM-1882, 1.0 µM / POC.
Where [3] appears, read: read-out: Kinome Profiling performed by Eurofins DiscoverX / AM-5308, 1.0 µM / POC.

Structures are written as SMILES. Like-named read-outs stand apart in the source and are kept apart here.

Chain of c-KIT (P10721 whole entry): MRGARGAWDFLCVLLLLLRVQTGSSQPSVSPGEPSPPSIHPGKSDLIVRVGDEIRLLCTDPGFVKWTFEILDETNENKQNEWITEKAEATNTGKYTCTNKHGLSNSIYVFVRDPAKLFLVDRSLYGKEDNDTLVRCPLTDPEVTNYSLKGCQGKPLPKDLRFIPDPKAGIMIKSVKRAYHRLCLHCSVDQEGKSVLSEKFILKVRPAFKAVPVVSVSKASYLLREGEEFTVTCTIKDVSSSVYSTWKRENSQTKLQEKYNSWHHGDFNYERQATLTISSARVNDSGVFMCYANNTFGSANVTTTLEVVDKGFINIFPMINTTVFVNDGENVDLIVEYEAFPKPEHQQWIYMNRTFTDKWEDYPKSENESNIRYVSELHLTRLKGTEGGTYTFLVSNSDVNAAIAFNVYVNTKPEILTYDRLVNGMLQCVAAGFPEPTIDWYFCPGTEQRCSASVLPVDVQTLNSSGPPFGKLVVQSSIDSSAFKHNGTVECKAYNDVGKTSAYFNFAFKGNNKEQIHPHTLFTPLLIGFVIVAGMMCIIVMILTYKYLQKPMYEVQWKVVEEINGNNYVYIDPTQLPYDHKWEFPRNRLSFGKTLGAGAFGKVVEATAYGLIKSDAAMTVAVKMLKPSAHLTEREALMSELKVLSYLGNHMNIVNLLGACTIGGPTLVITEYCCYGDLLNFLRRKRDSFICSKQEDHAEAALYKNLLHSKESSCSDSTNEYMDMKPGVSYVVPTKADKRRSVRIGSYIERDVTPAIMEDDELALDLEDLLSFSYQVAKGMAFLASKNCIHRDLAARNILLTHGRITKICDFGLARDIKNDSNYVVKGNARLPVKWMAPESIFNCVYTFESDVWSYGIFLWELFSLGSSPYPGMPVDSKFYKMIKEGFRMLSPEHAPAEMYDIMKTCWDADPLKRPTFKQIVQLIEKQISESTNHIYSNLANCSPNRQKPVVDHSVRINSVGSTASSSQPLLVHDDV
Chain of NEK6 (Q9HC98 whole entry): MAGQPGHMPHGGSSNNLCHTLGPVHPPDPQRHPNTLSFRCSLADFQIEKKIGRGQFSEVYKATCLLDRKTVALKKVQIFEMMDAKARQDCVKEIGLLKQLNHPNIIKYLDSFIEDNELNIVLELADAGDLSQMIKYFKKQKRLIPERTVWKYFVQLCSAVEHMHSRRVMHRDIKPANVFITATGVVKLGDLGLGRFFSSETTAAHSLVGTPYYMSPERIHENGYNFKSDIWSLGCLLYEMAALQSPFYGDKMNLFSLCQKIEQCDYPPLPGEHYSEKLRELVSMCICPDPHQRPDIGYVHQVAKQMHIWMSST

In the case of `CC(C)(CO)Nc1ccc(C(=O)Nc2cccc(S(=O)(=O)C3CCCC3)c2)c(N2CCC3(CC2)CC3)n1` [AM-0277], the remaining activity at 1 µM on c-KIT (setting [1]) was found to be 92%; on NEK6 (setting [1]), 94%; at PLK4 (setting [1]), 100%.

On to `CC(C)(C)NS(=O)(=O)c1cccc(NC(=O)c2ccc(S(=O)(=O)NC(C)(C)C)cc2N2CCC3(CC2)CC3)c1` [AM-1882], for which the remaining activity at 1 µM turned out to be 100% on c-KIT (setting [2]), 100% at NEK6 (setting [2]) and 93.5% at PLK4 (setting [2]).

On to `C[C@@H]1CN(c2cccc(NC(=O)c3ccc(NS(=O)(=O)CCO)cc3N3CCC4(CC3)CC4)n2)CCO1` [AM-5308], for which the remaining activity at 1 µM at c-KIT (setting [3]) stood at 100%; at NEK6 (setting [3]), 95%; at PLK4 (setting [3]), 87.5%.
